Laboratory results published in ChEMBL document CHEMBL1150967, “Two new diterpene glycosides from the soft coral lemnalia bournei” (J Nat Prod, 1998).
Converted amounts (≈) assume the structure as drawn.

How the values were obtained:
Format in all cases: functional, cell-based
[1] = Cytotoxicity against mouse S180A cells
[2] = Cytotoxicity against mouse EAC cells; details: Ehrlich
[3] = Cytotoxicity against human HepA cells

Row | Structure (SMILES) | IC50 [1] | IC50 [2] | IC50 [3]
1 | CC(=O)O[C@@H]1[C@@H](O)[C@@H]2O[C@@H]([C@H](C)CCC[C@H](C)[C@@H]3CC=C(C)[C@H]4CCC(C)=C[C@@H]34)OC[C@@H](O2)[C@H]1O [LEMNABOURSIDE B] | 40 µg/mL (≈ 81.2 µM) | 73.3 µg/mL (≈ 149 µM) | 33.5 µg/mL (≈ 68 µM)
2 | CC(=O)O[C@H]1[C@H](O)[C@@H](O)[C@@H]2O[C@@H]([C@H](C)CCC[C@H](C)[C@@H]3CC=C(C)[C@H]4CCC(C)=C[C@@H]34)OC[C@H]1O2 [LEMNABOURSIDE C] | 187 µg/mL (≈ 379 µM) | 40.5 µg/mL (≈ 82.2 µM) | 41.4 µg/mL (≈ 84 µM)
3 | CC1=C[C@H]2[C@H]([C@H](C)CCC[C@@H](C)C3OC[C@H]4O[C@@H](O3)[C@H](O)[C@@H](O)[C@@H]4O)CC=C(C)[C@H]2CC1 (some centres undefined) [LEMNABOURSIDE] | 27.4 µg/mL (≈ 60.8 µM) | 97.8 µg/mL (≈ 217 µM) | 31.6 µg/mL (≈ 70.1 µM)
